Reference: patent US20230348401A1, “Inhibitors of Glucose-6-phosphate Dehydrogenase and Uses Thereof” (The Trustees of Princeton University, priority 2020, published 2023)
Like-named read-outs stand apart in the source and are kept apart here.

Target: G6PD (Homo sapiens, UniProt P11413)
Assay: G6PD enzymatic activity by diaphorase-coupled assay
[1] = Normalized in vitro IC50, Table 1A, diaphorase-coupled biochemical assay, normalization to an intraplate control

Sequence of G6PD (P11413 28-515): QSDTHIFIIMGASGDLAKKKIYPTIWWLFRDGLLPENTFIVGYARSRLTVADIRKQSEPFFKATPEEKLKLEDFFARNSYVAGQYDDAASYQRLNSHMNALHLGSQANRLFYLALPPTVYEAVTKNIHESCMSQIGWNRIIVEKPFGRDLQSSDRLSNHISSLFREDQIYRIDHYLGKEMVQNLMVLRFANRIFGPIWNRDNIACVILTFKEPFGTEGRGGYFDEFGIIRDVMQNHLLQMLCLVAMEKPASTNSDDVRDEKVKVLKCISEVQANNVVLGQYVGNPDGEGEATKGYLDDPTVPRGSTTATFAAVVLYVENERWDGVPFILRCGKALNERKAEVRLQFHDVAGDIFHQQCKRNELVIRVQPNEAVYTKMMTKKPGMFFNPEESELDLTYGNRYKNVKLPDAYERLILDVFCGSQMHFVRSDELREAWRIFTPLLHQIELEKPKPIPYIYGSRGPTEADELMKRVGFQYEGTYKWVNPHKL

`O=C1CCCCc2nc(Nc3ccc(F)cc3)ncc21` [Compound 0001] showed an IC50 [1] of 1 to 1000 µM.
`O=C1CCCCc2nc(Nc3ccc(Cl)cc3)ncc21` [Compound 0002] gave an IC50 [1] of 1 to 1000 µM.
`O=C1CCCCc2nc(Nc3ccc(Br)cc3)ncc21` [Compound 0003] showed an IC50 [1] of 1 to 1000 µM.
For `O=C1CCCCc2nc(Nc3ccc(I)cc3)ncc21` [Compound 0004], the IC50 [1] was 1 to 1000 µM.
For `Cc1ccc(Nc2ncc3c(n2)CCCCC3=O)cc1` [Compound 0005], the IC50 [1] was 1 to 1000 µM.
For `CCc1ccc(Nc2ncc3c(n2)CCCCC3=O)cc1` [Compound 0006], the IC50 [1] was 1 to 1000 µM.
`CC(C)c1ccc(Nc2ncc3c(n2)CCCCC3=O)cc1` [Compound 0007] gave an IC50 [1] of 1 to 1000 µM.
`COc1ccc(Nc2ncc3c(n2)CCCCC3=O)cc1` [Compound 0008] showed an IC50 [1] of 1 to 1000 µM.
Compound `O=C1CCCCc2nc(Nc3ccc(SC(F)(F)F)cc3)ncc21` [Compound 0009] has an IC50 [1] of 1 to 1000 µM.
`O=C1CCCCc2nc(Nc3ccc(C(F)(F)F)cc3)ncc21` [Compound 0010] showed an IC50 [1] of 1 to 1000 µM.
`O=C1CCCCc2nc(Nc3ccc([N+](=O)[O-])cc3)ncc21` [Compound 0011] showed an IC50 [1] of 1 to 1000 µM.
`N#Cc1ccc(Nc2ncc3c(n2)CCCCC3=O)cc1` [Compound 0012] was tested, and the IC50 [1] was 1 to 1000 µM.
`CC(=O)Nc1ccc(Nc2ncc3c(n2)CCCCC3=O)cc1` [Compound 0013] was tested, and the IC50 [1] was > 1000 µM.
`O=C1CCCCc2nc(Nc3cc(C(F)(F)F)cc(C(F)(F)F)c3)ncc21` [Compound 0014] gave an IC50 of 1 to 1000 µM.
`O=C1CCCCc2nc(Nc3ccccc3F)ncc21` [Compound 0015] showed an IC50 [1] of 1 to 1000 µM.
`O=C1CCCCc2nc(Nc3ccccc3Cl)ncc21` [Compound 0016] was tested, and the IC50 [1] was 1 to 1000 µM.
For `O=C1CCCCc2nc(Nc3ccc(F)c(Cl)c3)ncc21` [Compound 0017], the IC50 was < 1 µM.
Work on `N#Cc1cc(Nc2ncc3c(n2)CCCCC3=O)ccc1Cl` [Compound 0018] yielded an IC50 of 1 to 1000 µM.
For `Cc1ccc(Nc2ncc3c(n2)CCCCC3=O)cc1C#N` [Compound 0019], the IC50 was < 1 µM.
For `COc1ccc(Nc2ncc3c(n2)CCCCC3=O)cc1C#N` [Compound 0020], the IC50 [1] was < 1 µM.
For `O=C1CCCCc2nc(Nc3ccccc3)ncc21` [Compound 0021], the IC50 [1] was 1 to 1000 µM.
`COC(=O)c1ccc(Nc2ncc3c(n2)CCCCC3=O)cc1` [Compound 0022] was tested, and the IC50 [1] was 1 to 1000 µM.
`CC1(C)OB(c2cccc(Nc3ncc4c(n3)CCCCC4=O)c2)OC1(C)C` [Compound 0023] showed an IC50 of 1 to 1000 µM.
With `N#CCc1cccc(Nc2ncc3c(n2)CCCCC3=O)c1` [Compound 0024] the IC50 [1] was 1 to 1000 µM.
`O=C1CCCCc2nc(Nc3ccc([N+](=O)[O-])c(Cl)c3)ncc21` [Compound 0025] showed an IC50 of 1 to 1000 µM.
`N#CCc1ccc(Nc2ncc3c(n2)CCCCC3=O)cc1` [Compound 0026] was tested, and the IC50 [1] was 1 to 1000 µM.
`O=C1CCCCc2nc(Nc3cc(Cl)cc(C(F)(F)F)c3)ncc21` [Compound 0027] was tested, and the IC50 was 1 to 1000 µM.
With `O=C1CCCCc2nc(Nc3cccc(Cl)c3)ncc21` [Compound 0028] the IC50 [1] was < 1 µM.
With `N#Cc1cc(Nc2ncc3c(n2)CCCCC3(F)F)cs1` [Compound 0031] the IC50 was 1 to 1000 µM.
Work on `O=C1CCCCc2nc(Nc3ccc(B(O)O)cc3)ncc21` [Compound 0032] yielded an IC50 [1] of 1 to 1000 µM.
In the case of `O=C1CCCCc2nc(Nc3csc(-c4nnn[nH]4)c3)ncc21` [Compound 0033], the IC50 is reported as 1 to 1000 µM.
`N#CC(C#N)=C1CCCCc2nc(Nc3csc(C#N)c3)ncc21` [Compound 0034] was tested, and the IC50 was < 1 µM.
For `N#Cc1cc(Nc2ncc3c(n2)CCCCC3=O)cc(OCc2ccccc2)c1` [Compound 0035], the IC50 was < 1 µM.
For `O=C1CCCCc2nc(Nc3ccc(-c4nnn[nH]4)cc3)ncc21` [Compound 0036], the IC50 was < 1 µM.
Compound `N#Cc1cc(Nc2ncc3c(n2)C2CCC(C2)C3=O)cs1` (stereo not shown) [Compound 0040] has an IC50 of 1 to 1000 µM.
With `O=C(c1ccccc1)c1cc(Cl)cc(Nc2ncc3c(n2)CCCCC3=O)c1` [Compound 0042] the IC50 [1] was 1 to 1000 µM.
`Cc1ccc(C(=O)c2cc(Cl)cc(Nc3ncc4c(n3)CCCCC4=O)c2)cc1` [Compound 0043] was tested, and the IC50 was > 1000 µM.
Compound `NS(=O)(=O)c1ccc(Nc2ncc3c(n2)CCCCC3=O)cc1` [Compound 0044] has an IC50 [1] of 1 to 1000 µM.
`N#Cc1cc(Nc2ncc3c(n2)CCCCC3=O)cc(OCc2ccc(Cl)cc2)c1` [Compound 0045] was tested, and the IC50 was 1 to 1000 µM.
In the case of `N#Cc1cc(Nc2ncc3c(n2)CCCCC3=O)cc(OCc2cccc(Cl)c2)c1` [Compound 0046], the IC50 is reported as < 1 µM.
In the case of `N#Cc1cc(Nc2ncc3c(n2)CCCCC3=O)cc(OCc2ccccc2Cl)c1` [Compound 0047], the IC50 is reported as < 1 µM.
For `COc1ccc(COc2cc(C#N)cc(Nc3ncc4c(n3)CCCCC4=O)c2)cc1` [Compound 0048], the IC50 was < 1 µM.
With `N#Cc1cc(Nc2ncc3c(n2)CCCCC3=O)cc(OCc2ccsc2)c1` [Compound 0049] the IC50 was < 1 µM.
In the case of `N#Cc1cc(Nc2ncc3c(n2)CCCCC3=O)cc(OCc2c(F)c(F)c(F)c(F)c2F)c1` [Compound 0050], the IC50 is reported as < 1 µM.
For `N#Cc1cc(Nc2ncc3c(n2)CCCCC3=O)c[nH]1` [Compound 0051], the IC50 was < 1 µM.
Work on `N#Cc1cc(Nc2ncc3c(n2)CCCc2cnoc2-3)cs1` [Compound 0052] yielded an IC50 of 1 to 1000 µM.
For `N#Cc1cc(Nc2ncc3c(n2)CCCC/C3=N\O)cs1` [Compound 0053], the IC50 was > 1000 µM.
`N#Cc1cc(Nc2ncc3c(n2)CCCC/C3=N/O)cs1` [Compound 0054] was tested, and the IC50 was > 1000 µM.
`N#C/C=C1\CCCCc2nc(Nc3csc(C#N)c3)ncc21` [Compound 0055] showed an IC50 of 1 to 1000 µM.
`N#C/C=C1/CCCCc2nc(Nc3csc(C#N)c3)ncc21` [Compound 0056] gave an IC50 of 1 to 1000 µM.
`Cn1cc(Nc2ncc3c(n2)CCCCC3=O)cc1C#N` [Compound 0057] showed an IC50 of 1 to 1000 µM.
In the case of `N#Cc1cc(Nc2ncc3c(n2)CCCCC3=O)cn1Cc1ccccc1` [Compound 0058], the IC50 is reported as 1 to 1000 µM.
For `CCOc1cc(C#N)cc(Nc2ncc3c(n2)CCCCC3=O)c1` [Compound 0059], the IC50 was < 1 µM.
With `CCCOc1cc(C#N)cc(Nc2ncc3c(n2)CCCCC3=O)c1` [Compound 0060] the IC50 was < 1 µM.
In the case of `CC(C)Oc1cc(C#N)cc(Nc2ncc3c(n2)CCCCC3=O)c1` [Compound 0061], the IC50 is reported as < 1 µM.
`C#CCOc1cc(C#N)cc(Nc2ncc3c(n2)CCCCC3=O)c1` [Compound 0062] was tested, and the IC50 was < 1 µM.
In the case of `N#Cc1cc(Nc2ncc3c(n2)CCCCC3=O)cc(OC2CCCCC2)c1` [Compound 0063], the IC50 is reported as < 1 µM.
`N#Cc1cc(Nc2ncc3c(n2)CCCCC3=O)cs1` [Compound 0065] was tested, and the IC50 [1] was < 1 µM.
Work on `N#Cc1cc(Nc2cc3c(cn2)C(=O)CCCC3)cs1` [Compound 0066] yielded an IC50 of 1 to 1000 µM.
With `N#Cc1cc(Nc2ncc3c(n2)CCCc2cn[nH]c2-3)cs1` [Compound 0067] the IC50 was 1 to 1000 µM.
For `N#Cc1scc(Nc2ncc3c(n2)CCCCC3=O)c1-n1cccc1` [Compound 0071], the IC50 was < 1 µM.
In the case of `N#Cc1cc(Nc2ncc3c(n2)CCCCC3=O)cc(OCC2CCCCC2)c1` [Compound 0072], the IC50 is reported as 1 to 1000 µM.
For `N#Cc1cc(Nc2ncc3c(n2)CCCCC3=O)cc(OCc2ccc(Br)cc2)c1` [Compound 0073], the IC50 was 1 to 1000 µM.
`Cc1ccc(COc2cc(C#N)cc(Nc3ncc4c(n3)CCCCC4=O)c2)cc1` [Compound 0074] was tested, and the IC50 was < 1 µM.
`N#Cc1cc(Nc2ncc3c(n2)CCCCC3=O)cc(OCc2ccc3c(c2)OCO3)c1` [Compound 0075] was tested, and the IC50 was < 1 µM.
In the case of `N#Cc1cc(Nc2ncc3c(n2)CCCCC3=O)cc(OCc2ccc(F)cc2)c1` [Compound 0076], the IC50 is reported as < 1 µM.
In the case of `N#Cc1cc(Nc2ncc3c(n2)CCCCC3=O)cc(OCc2ccc(OC(F)(F)F)cc2)c1` [Compound 0077], the IC50 is reported as 1 to 1000 µM.
In the case of `N#Cc1cc(Nc2ncc3c(n2)CCCCC3=O)cc(OCc2ccncc2)c1` [Compound 0078], the IC50 is reported as < 1 µM.
For `N#Cc1cc(Nc2ncc3c(n2)CCCCC3=O)cc(OCc2cccc3ccccc23)c1` [Compound 0079], the IC50 was < 1 µM.
`N#Cc1cc(Nc2ncc3c(n2)CCCCC3=O)cc(OCc2ccc3ccccc3c2)c1` [Compound 0080] was tested, and the IC50 was 1 to 1000 µM.
For `N#Cc1cc(Nc2ncc3c(n2)CCCCC3=O)cc(OCc2c[nH]c3ccccc23)c1` [Compound 0081], the IC50 was > 1000 µM.
With `N#Cc1cc(Nc2ncc3c(n2)CCCCC3=O)cc(OCc2ccc(CO)cc2)c1` [Compound 0082] the IC50 was < 1 µM.
`N#Cc1cc(Nc2ncc3c(n2)CCCCC3=O)cc(OCc2cccc(CO)c2)c1` [Compound 0083] was tested, and the IC50 was < 1 µM.
In the case of `N#Cc1cc(Nc2ncc3c(n2)CCCCC3=O)cc(Oc2ccccc2)c1` [Compound 0084], the IC50 is reported as 1 to 1000 µM.
Work on `N#Cc1cc(Nc2ncc3c(n2)CCCCC3=O)cc(OC(=O)c2ccccc2)c1` [Compound 0085] yielded an IC50 of 1 to 1000 µM.
For `COc1ccc(Oc2cc(C#N)cc(Nc3ncc4c(n3)CCCCC4=O)c2)cc1` [Compound 0086], the IC50 [1] was 1 to 1000 µM.
In the case of `N#Cc1cccc(Nc2ncc3c(n2)CCCCC3=O)c1F` [Compound 0087], the IC50 is reported as < 1 µM.
With `N#Cc1ccc(F)c(Nc2ncc3c(n2)CCCCC3=O)c1` [Compound 0088] the IC50 was 1 to 1000 µM.
In the case of `CCCCOc1cc(C#N)cc(Nc2ncc3c(n2)CCCCC3=O)c1` [Compound 0089], the IC50 is reported as 1 to 1000 µM.
`CCOCCOc1cc(C#N)cc(Nc2ncc3c(n2)CCCCC3=O)c1` [Compound 0090] gave an IC50 of 1 to 1000 µM.
With `CCCCCCCCCCCCCCOc1cc(C#N)cc(Nc2ncc3c(n2)CCCCC3=O)c1` [Compound 0092] the IC50 was > 1000 µM.
`CC1(C)[C@H]2CCC1(C)[C@@H](Oc1cc(C#N)cc(Nc3ncc4c(n3)CCCCC4=O)c1)C2` [Compound 0093] was tested, and the IC50 was > 1000 µM.
In the case of `C#CCCCOc1cc(C#N)cc(Nc2ncc3c(n2)CCCCC3=O)c1` [Compound 0094], the IC50 is reported as < 1 µM.
With `C#CCC1(COc2cc(C#N)cc(Nc3ncc4c(n3)CCCCC4=O)c2)N=N1` [Compound 0095] the IC50 was > 1000 µM.
For `COC(=O)c1ccc(COc2cc(C#N)cc(Nc3ncc4c(n3)CCCCC4=O)c2)cc1` [Compound 0096], the IC50 was > 1000 µM.
In the case of `N#Cc1cc(Nc2ncc3c(n2)CCCCC3=O)cc(OCC2CC2)c1` [Compound 0097], the IC50 is reported as < 1 µM.
`N#Cc1cc(Nc2ncc3c(n2)CCCCC3=O)cc(OCC2CCC2)c1` [Compound 0098] showed an IC50 of 1 to 1000 µM.
With `N#Cc1cc(Nc2ncc3c(n2)CCCCC3=O)cc(OCC2CCCC2)c1` [Compound 0099] the IC50 was 1 to 1000 µM.
Compound `N#Cc1cc(Nc2ncc3c(n2)CCCCC3=O)cc(OC(c2ccccc2)c2ccccc2)c1` [Compound 0100] has an IC50 of 1 to 1000 µM.
Work on `CCC(CC)Oc1cc(C#N)cc(Nc2ncc3c(n2)CCCCC3=O)c1` [Compound 0101] yielded an IC50 of 1 to 1000 µM.
In the case of `N#Cc1cc(Nc2ncc3c(n2)CCCCC3=O)cc(OCCc2ccccc2)c1` [Compound 0103], the IC50 is reported as < 1 µM.
